Usually MIC stands for the smallest concentration in the dilution series that meets the test's criterion for growth inhibition. One may read the MIC50 as the lowest concentration that inhibits either 50% of growth or 50% of the strains tested, depending on the study. For orientation: MIC90 means an inhibitory concentration at the 90% level, which refers to growth in some studies and to a panel of isolates in others.

This note sets out measurements from ChEMBL document CHEMBL1649149, “Sitafloxacin and garenoxacin may overcome the antibiotic resistance of Helicobacter pylori with gyrA mutation” (2009).

Values after ≈ are worked out from the molar mass of the structure shown.

Common to all, as to type: functional
The test system of assay [1] is Helicobacter pylori. In words: Antibacterial activity against Helicobacter pylori infected in human assessed as bacterial eradication rate at 20 mg, po BID for 10 days by 13C-urea breath test.
For assay [2], the system named is Helicobacter pylori. Briefly: Antibacterial activity against Helicobacter pylori infected in human assessed as bacterial eradication rate at 1 g, po BID for 7 days.
In assay [3] the test system is Helicobacter pylori. In words: Antibacterial activity against Helicobacter pylori infected in human assessed as bacterial eradication rate at 400 mg, po QD for 7 days.
Assay [4] deals with Helicobacter pylori. In words: Antibacterial activity against Helicobacter pylori infected in human assessed as bacterial eradication rate at 20 mg, po BID for 7 days.
Assay [5] deals with Helicobacter pylori. In words: Antibacterial activity against GAT-susceptible Helicobacter pylori infected in human assessed as bacterial eradication rate for 7 days.
The subject of assay [6] is Helicobacter pylori. Briefly: Antibacterial activity against Helicobacter pylori harboring gyrA mutant gene infected in human assessed as bacterial eradication rate after 7 days.
Assay [7] concerns Helicobacter pylori. In words: Antibacterial activity against Helicobacter pylori harboring gyrA mutant gene assessed as resistant isolates.
In assay [8] the test system is Helicobacter pylori. Briefly: Antibacterial activity against Helicobacter pylori harboring gyrA mutant gene.
The subject of assay [9] is Helicobacter pylori. Briefly: Antibacterial activity against Helicobacter pylori harboring gyrA mutant gene by agar dilution method. For orientation: In agar dilution, organisms are placed on agar that contains the substance at set levels.
Assay [10] deals with Helicobacter pylori. In words: Antibacterial activity against Helicobacter pylori.

Turning to `COc1ccc2[nH]c([S+]([O-])Cc3ncc(C)c(OC)c3C)nc2c1` (configuration not stated) [OMEPRAZOLE], the Activity in the assay with Helicobacter pylori [1] is 66%.
Consider `COCCCOc1ccnc(C[S+]([O-])c2nc3ccccc3[nH]2)c1C` (configuration not stated) [RABEPRAZOLE], for which the Activity with Helicobacter pylori [2] is 84.4%; with Helicobacter pylori [3], 84.4%; in the assay with Helicobacter pylori [4], 84.4%; in the assay on Helicobacter pylori [5] it was 100%.
Turning to `CC1(C)S[C@@H]2[C@H](NC(=O)[C@H](N)c3ccc(O)cc3)C(=O)N2[C@H]1C(=O)O` [AMOXICILLIN], the Activity with Helicobacter pylori [6] is reported as 33.3%; with Helicobacter pylori [2], 84.4%; with Helicobacter pylori [3] it was 84.4%; in the assay with Helicobacter pylori [4] it was 84.4%.
Consider `COc1c(N2CCNC(C)C2)c(F)cc2c(=O)c(C(=O)O)cn(C3CC3)c12` (configuration not stated) [GATIFLOXACIN], for which the Activity in the assay on Helicobacter pylori [6] stood at 33.3%; in the assay with Helicobacter pylori [7] it was 47.9%; in the assay on Helicobacter pylori [2] it was 84.4%; with Helicobacter pylori [3], 84.4%; with Helicobacter pylori [4], 84.4%. The MIC in the assay on Helicobacter pylori [8] is at least 1 µg/mL. The compound also yielded an MIC50 with Helicobacter pylori [9] of 2 µg/mL (≈ 5.33 µM). In addition, the MIC90 in the assay on Helicobacter pylori [9] worked out at 4 µg/mL (≈ 10.7 µM).
`C[C@H]1NCc2cc(-c3ccc4c(=O)c(C(=O)O)cn(C5CC5)c4c3OC(F)F)ccc21` [GARENOXACIN]: in the assay with Helicobacter pylori [9], the MIC50 was determined as 0.5 µg/mL (≈ 1.17 µM) and the MIC90 is 1 µg/mL (≈ 2.35 µM).
`N[C@@H]1CN(c2c(F)cc3c(=O)c(C(=O)O)cn([C@@H]4C[C@@H]4F)c3c2Cl)CC12CC2` [SITAFLOXACIN ANHYDROUS] displayed an MIC90 against Helicobacter pylori [10] below 0.008 µg/mL. In the assay with Helicobacter pylori [9], the MIC50 was found to be 0.12 µg/mL (≈ 0.293 µM) and the MIC90 amounted to 0.25 µg/mL (≈ 0.61 µM).
